Assay [1] relates to KRas-mediated phosphorylation of ERK in AsPC-1 cells. As to the kind of experiment: Inhibition of KRas-mediated phosphorylation of ERK (Cisbio HTRF pERK), AsPC-1 cells. The assay is classed as cell-based. To be noted: Homo sapiens, ASPC1, AsPC-1 cells; HTRF pERK. A digest of the protocol: (§1)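 Cells were seeded at 6,000 per well and treated for 3 hrs with compound in a 10-dose, 3-fold series from 10 uM (0.8% final DMSO), with 0.2 uM Trametinib as Min control. Lysates made at 4° C over 40 mins were incubated 2 hrs at room temperature with d2- and Cryptate-labelled antibodies, then read by HTRF.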

Assay [2] relates to KRas-mediated phosphorylation of ERK in A549 cells. The experiment in a line: Inhibition of KRas-mediated phosphorylation of ERK (Cisbio HTRF pERK), A549 cells. The assay is classed as cell-based. Particulars: Homo sapiens, HTRF pERK. The method, boiled down: (§2)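 Compound treatment lasts 3 hrs on 6,000 seeded cells, testing 10 doses from a 10 uM top concentration in 3-fold decrements at 0.8% final DMSO. Trametinib at 0.2 uM defines the Min signal. Detection is HTRF on cold-lysed cell extracts.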

The test system of assay [3] is KRas-mediated phosphorylation of ERK in H460 cells. The experiment in a line: Inhibition of KRas-mediated phosphorylation of ERK (Cisbio HTRF pERK), H460 cells. In kind it is cell-based. To be noted: Homo sapiens; for IC50: NCI-H460, HTRF pERK. A digest of the protocol:
as §1

Assay [4] deals with KRas-mediated phosphorylation of ERK in MKN1 cells. As to the kind of experiment: Inhibition of KRas-mediated phosphorylation of ERK (Cisbio HTRF pERK), MKN1 cells. In kind it is cell-based. Particulars: Homo sapiens, MKN-1. A digest of the protocol:
(§3)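 Phospho-ERK is quantified by HTRF with the Advanced pERK kit. Cells go in at 6,000/well in RPMI plus 10% FBS overnight at 37° C. under 5% CO2, with a 4-hour covered room-temperature incubation ahead of the read.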

The target of assay [5] is T1, KRas^G12V (Homo sapiens, UniProt P01116, G12V).
T1 construct: Biotinylated KRas (corresponding to amino acids 1-169, produced at Accelegan Inc.); biotin (biotinylated); purchased Accelegan Inc
T1 sequence (P01116 1-169 isoform P01116-2 G12V): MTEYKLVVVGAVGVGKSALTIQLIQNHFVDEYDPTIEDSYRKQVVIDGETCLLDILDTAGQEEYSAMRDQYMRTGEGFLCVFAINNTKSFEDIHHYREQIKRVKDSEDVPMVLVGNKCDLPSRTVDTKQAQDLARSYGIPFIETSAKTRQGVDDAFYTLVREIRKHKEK
The experiment in a line: KRas binding assay (TR-FRET tracer displacement), KRas G12V.

The target of assay [6] is T2, KRas^WT (Homo sapiens, UniProt P01116).
T2 construct: Biotinylated KRas (corresponding to amino acids 1-169, produced at Accelegan Inc.); biotin (biotinylated); purchased Accelegan Inc
T2 sequence (P01116 1-169 isoform P01116-2): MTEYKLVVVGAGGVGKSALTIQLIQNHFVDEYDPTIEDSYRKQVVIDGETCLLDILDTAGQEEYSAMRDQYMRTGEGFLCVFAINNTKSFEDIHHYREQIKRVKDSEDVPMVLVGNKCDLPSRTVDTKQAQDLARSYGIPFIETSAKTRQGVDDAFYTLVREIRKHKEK
As to the kind of experiment: KRas binding assay (TR-FRET tracer displacement), KRas WT. Particulars: single point, 10 nM compound, TR-FRET.

Assay [7] concerns KRas-mediated phosphorylation of ERK in HCT116 cells. The experiment in a line: Inhibition of KRas-mediated phosphorylation of ERK (Cisbio HTRF pERK), HCT116 cells. In kind it is cell-based. Particulars: Homo sapiens; for IC50: HCT-116, HTRF pERK. A digest of the protocol: as §2
The subject of assay [8] is KRas-mediated phosphorylation of ERK in H727 cells. As to the kind of experiment: Inhibition of KRas-mediated phosphorylation of ERK (Cisbio HTRF pERK), H727 cells. In kind it is cell-based. Particulars: Homo sapiens, NCI-H727, H727 cells; HTRF pERK. A digest of the protocol: as §1
Assay [9] concerns the target T3, KRas^G13D (Homo sapiens, UniProt P01116, G13D).
T3 construct: Biotinylated KRas (corresponding to amino acids 1-169, produced at Accelegan Inc.); biotin (biotinylated); purchased Accelegan Inc
The experiment in a line: KRas binding assay (TR-FRET tracer displacement), KRas G13D. To be noted: single point, 10 nM compound, TR-FRET.

The target in assay [10] is T4, KRas^G12R (Homo sapiens, UniProt P01116, G12R).
T4 construct: Biotinylated KRas (corresponding to amino acids 1-169, produced at Accelegan Inc.); biotin (biotinylated); purchased Accelegan Inc
T4 sequence (P01116 1-169 isoform P01116-2 G12R): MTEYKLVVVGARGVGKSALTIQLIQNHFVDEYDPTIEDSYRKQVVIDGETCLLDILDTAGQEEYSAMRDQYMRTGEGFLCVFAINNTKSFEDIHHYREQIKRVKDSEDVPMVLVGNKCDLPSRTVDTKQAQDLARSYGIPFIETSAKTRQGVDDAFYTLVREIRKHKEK
As to the kind of experiment: KRas binding assay (TR-FRET tracer displacement), KRas G12R.

For assay [11], the target named is T5, KRas^Q61H (Homo sapiens, UniProt P01116, Q61H).
T5 construct: Biotinylated KRas (corresponding to amino acids 1-169, produced at Accelegan Inc.); biotin (biotinylated); purchased Accelegan Inc
T5 sequence (P01116 1-169 isoform P01116-2 Q61H): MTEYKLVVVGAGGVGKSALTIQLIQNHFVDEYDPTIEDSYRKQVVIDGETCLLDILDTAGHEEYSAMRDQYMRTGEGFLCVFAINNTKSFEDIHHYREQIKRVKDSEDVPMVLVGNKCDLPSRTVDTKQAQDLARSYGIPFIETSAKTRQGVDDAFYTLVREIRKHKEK
As to the kind of experiment: KRas binding assay (TR-FRET tracer displacement), KRas Q61H. To be noted: single point, 10 nM compound, TR-FRET.

The target in assay [12] is T6, KRas^G12C (Homo sapiens, UniProt P01116, G12C).
T6 construct: Biotinylated KRas (corresponding to amino acids 1-169, produced at Accelegan Inc.); biotin (biotinylated); purchased Accelegan Inc
T6 sequence (P01116 1-169 isoform P01116-2 G12C): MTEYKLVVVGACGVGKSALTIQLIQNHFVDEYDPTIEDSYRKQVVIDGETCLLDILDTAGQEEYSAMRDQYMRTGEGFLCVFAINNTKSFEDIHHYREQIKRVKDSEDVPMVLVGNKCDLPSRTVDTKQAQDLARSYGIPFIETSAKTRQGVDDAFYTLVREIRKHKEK
As to the kind of experiment: KRas binding assay (TR-FRET tracer displacement), KRas G12C. To be noted: single point, 10 nM compound, TR-FRET.

For assay [13], the target named is T7, KRas^G12S (Homo sapiens, UniProt P01116, G12S).
T7 construct: Biotinylated KRas (corresponding to amino acids 1-169, produced at Accelegan Inc.); biotin (biotinylated); purchased Accelegan Inc
T7 sequence (P01116 1-169 isoform P01116-2 G12S): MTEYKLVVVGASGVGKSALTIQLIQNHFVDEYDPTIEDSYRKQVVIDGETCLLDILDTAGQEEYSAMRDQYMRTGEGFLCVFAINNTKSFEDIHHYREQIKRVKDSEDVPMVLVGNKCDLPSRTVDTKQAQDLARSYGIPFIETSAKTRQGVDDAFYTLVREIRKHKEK
The experiment in a line: KRas binding assay (TR-FRET tracer displacement), KRas G12S. To be noted: single point, 10 nM compound, TR-FRET.

The target of assay [14] is T8, KRas^G12D (Homo sapiens, UniProt P01116, G12D).
T8 construct: Biotinylated KRas (corresponding to amino acids 1-169, produced at Accelegan Inc.); biotin (biotinylated); purchased Accelegan Inc
T8 sequence (P01116 1-169 isoform P01116-2 G12D): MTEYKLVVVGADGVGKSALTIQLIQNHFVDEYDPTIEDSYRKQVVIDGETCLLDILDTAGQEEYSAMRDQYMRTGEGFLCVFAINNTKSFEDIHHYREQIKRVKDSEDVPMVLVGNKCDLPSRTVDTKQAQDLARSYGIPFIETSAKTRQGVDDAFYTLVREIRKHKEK
As to the kind of experiment: KRas binding assay (TR-FRET tracer displacement), KRas G12D.

The target in assay [15] is T9, KRas^G12A (Homo sapiens, UniProt P01116, G12A).
T9 construct: Biotinylated KRas (corresponding to amino acids 1-169, produced at Accelegan Inc.); biotin (biotinylated); purchased Accelegan Inc
T9 sequence (P01116 1-169 isoform P01116-2 G12A): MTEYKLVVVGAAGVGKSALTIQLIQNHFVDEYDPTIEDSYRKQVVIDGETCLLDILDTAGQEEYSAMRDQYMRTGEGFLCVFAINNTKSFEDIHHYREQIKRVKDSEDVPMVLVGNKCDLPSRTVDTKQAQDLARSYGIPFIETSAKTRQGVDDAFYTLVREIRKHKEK
The experiment in a line: KRas binding assay (TR-FRET tracer displacement), KRas G12A. To be noted: single point, 10 nM compound, TR-FRET.

The subject of assay [16] is KRas-mediated phosphorylation of ERK in PSN1 cells. The experiment in a line: Inhibition of KRas-mediated phosphorylation of ERK (Cisbio HTRF pERK), PSN1 cells. In kind it is cell-based. Particulars: Homo sapiens. A digest of the protocol: as §3

T3 sequence (P01116 1-169 isoform P01116-2 G13D): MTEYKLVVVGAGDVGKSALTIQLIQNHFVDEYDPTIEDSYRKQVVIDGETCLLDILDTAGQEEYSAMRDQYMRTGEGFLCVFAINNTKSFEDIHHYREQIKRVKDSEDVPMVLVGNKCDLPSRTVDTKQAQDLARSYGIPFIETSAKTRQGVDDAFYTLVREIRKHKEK

In the case of `CCc1c(F)ccc2cc(O)cc(-c3ncc4c(N5CCOCC(C)(O)C5)nc(OCC56CCCN5[C@H](COC(=O)N(C)C)CC6)nc4c3F)c12` (stereo in doubt) [Example 710, ((3S,7aR)-7a-(((7-(8-ethyl-7-fluoro-3-hydroxynaphthalen-1-yl)-8-fluoro-4-(6-hydroxy-6-methyl-1,4-oxazepan-4-yl)pyrido[4,3-d]pyrimidin-2-yl)oxy)methyl)hexahydro-1H-pyrrolizin-3-yl)methyl dimethylcarbamate], the IC50 came to 22 nM in [1]; 47 nM in [2]; 25 nM in [4]; 3 nM in assay [5]; 49 nM in assay [8]; 4 nM in [10]. Also, the figures for the IC50 in assay [14] and in assay [16] were 2 nM and 2610 nM, respectively. The inhibition at 0.1 µM in assay [3] (NCI-H460, 3 h, single point, 100 nM compound, 3 hrs) worked out at 66%; in assay [7] (HCT-116, 3 h, single point, 100 nM compound, 3 hrs) it was 37%. For the same molecule, the inhibition at 0.01 µM in assay [6] came to 80%; in assay [9], 86%; in assay [11], 88%; in assay [12] it was 88%; in [13], 83%; in [15], 74%.

Regarding `CCc1c(F)ccc2cc(O)cc(-c3ncc4c(N5CCC[C@@](C)(O)C5)nc(OC[C@@]56CCCN5[C@H](COC(=O)N5CCCC5)CC6)nc4c3F)c12` [Example 719, ((3S,7aS)-7a-(((7-(8-ethyl-7-fluoro-3-hydroxynaphthalen-1-yl)-8-fluoro-4-((R)-3-hydroxy-3-methylpiperidin-1-yl)pyrido[4,3-d]pyrimidin-2-yl)oxy)methyl)hexahydro-1H-pyrrolizin-3-yl)methyl pyrrolidine-1-carboxylate], the concentration for half-maximal inhibition (IC50) in [1] is 7 nM; in assay [2], 7 nM; in assay [3], 8 nM; in assay [4], 1 nM; in assay [5], below 2 nM; in [7] it was 23 nM. Also, the IC50 in assay [8] is 23 nM; in assay [10] it was below 2 nM; in [14], below 2 nM; in assay [16] it was 518 nM. Besides, the inhibition at 0.01 µM in assay [6] amounted to 96%; in [9], 98%; in assay [11], 98%; in [12] it was 97%; in assay [13] it was 97%; in assay [15], 95%.

As to `CCc1c(F)ccc2cc(O)cc(-c3ncc4c(N5CCCn6nncc6C5)nc(OC[C@@]56CCCN5C[C@H](F)C6)nc4c3F)c12` [Example 562, 4-(4-(7,8-dihydro-4H-[1,2,3]triazolo[1,5-a][1,4]diazepin-5(6H)-yl)-8-fluoro-2-(((2R,7aS)-2-fluorohexahydro-1H-pyrrolizin-7a-yl)methoxy)pyrido[4,3-d]pyrimidin-7-yl)-5-ethyl-6-fluoronaphthalen-2-ol], the half-inhibitory concentration (IC50) in assay [1] is 76 nM; in assay [2] it was 496 nM; in assay [3] it was 438 nM; in assay [4], 35 nM; in [5] it was 3 nM; in [7], 1060 nM. Moreover, the IC50 in assay [8] was 217 nM; in [10], 3 nM; in assay [14] it was below 2 nM; in assay [16], above 10000 nM. Also, the inhibition at 0.01 µM in assay [6] amounted to 62%; in assay [9], 69%; in assay [11], 67%; in assay [12], 76%; in assay [13], 81%; in [15], 59%.
